In ChEMBL document CHEMBL3727358, “Inhibitors of inducible form of 6-phosphofructose-2-kinase” (2014):

Columns and labels:
[1] = target: T1, 6-phosphofructo-2-kinase/fructose-2,6-bisphosphatase 3 (Homo sapiens, UniProt Q16875); assay: Inhibition of iPFK2 (unknown origin) assessed as reduction in enzyme-mediated fructose-6-phosphate phosphorylation by measuring NADH absorbance pre-incubated for 10 mins before ATP/substrate addition followed by incubation for 1 hr by UV-Visible spectrometry based iPFK-2/PPI-PFK coupled enzyme assay
T1 sequence (Q16875 whole entry): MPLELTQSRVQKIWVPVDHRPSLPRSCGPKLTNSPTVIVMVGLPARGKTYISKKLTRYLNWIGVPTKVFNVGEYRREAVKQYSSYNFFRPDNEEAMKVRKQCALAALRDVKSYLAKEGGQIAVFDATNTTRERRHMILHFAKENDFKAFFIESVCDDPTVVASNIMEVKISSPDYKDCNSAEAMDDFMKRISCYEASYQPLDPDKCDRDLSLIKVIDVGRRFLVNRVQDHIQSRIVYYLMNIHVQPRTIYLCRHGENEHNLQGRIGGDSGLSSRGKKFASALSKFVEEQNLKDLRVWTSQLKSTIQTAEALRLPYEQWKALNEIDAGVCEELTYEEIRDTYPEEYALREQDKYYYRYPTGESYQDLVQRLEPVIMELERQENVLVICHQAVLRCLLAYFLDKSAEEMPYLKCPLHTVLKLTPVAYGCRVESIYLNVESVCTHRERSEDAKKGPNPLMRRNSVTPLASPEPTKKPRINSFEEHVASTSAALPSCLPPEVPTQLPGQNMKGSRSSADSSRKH

[2] = target: T1, 6-phosphofructo-2-kinase/fructose-2,6-bisphosphatase 3; assay: Inhibition of iPFK2 (unknown origin) assessed as reduction in enzyme-mediated fructose-6-phosphate phosphorylation by measuring ATP consumption incubated for 3 hrs by luciferase-luciferin-coupled chemiluminescence assay

| IC50 [1] | IC50 [2] | SMILES |
| --- | --- | --- |
| > 1000 nM | – | Cc1nc(NCC2CCCN(C(=O)C3CCC3)C2)cc(-c2ccc3ncsc3c2)n1 (stereo unspecified) |
| 500 nM | 500 nM | COc1cccc([C@H](C)Nc2cc(-c3ccc4c(c3)CCO4)nc(C)n2)c1 |
| 500 nM | – | CCN(C)C(=O)COc1cccc(C(C)Nc2cc(-c3ccc4ncsc4c3)nc(C)n2)c1 (stereo unspecified) |
| 500 nM | 500 nM | Cc1nc(NCc2cc(O)ccc2F)cc(-c2ccc3ncsc3c2)n1 |
| 500 nM | > 1000 nM | Cc1nc(NC(C)c2cccc(NC(=O)c3ccn[nH]3)c2)cc(-c2ccc3ncsc3c2)n1 (stereo unspecified) |
| 500 nM | > 1000 nM | COc1ccc(Br)c(CNc2cc(-c3ccc4ncsc4c3)nc(C)n2)c1 |
| > 1000 nM | > 1000 nM | Cc1cc(-c2cc(N[C@@H]3CCCc4ccccc43)nc(C)n2)ccn1 |
| 500 nM | 500 nM | C#CCOc1cccc(C(C)Nc2cc(-c3ccc4ncsc4c3)nc(C)n2)c1 (stereo unspecified) |
| 500 nM | – | Cc1nc(N[C@@H]2CCCc3ccccc32)cc(-c2ccc(Cl)c(COC(C)C(=O)O)c2)n1 (stereo partly specified) |
| 500 nM | – | Cc1nc(NC(C)c2cccc(OCCN(C)C)c2)cc(-c2ccc3ncsc3c2)n1 (stereo unspecified) |
| > 1000 nM | – | COc1cccc([C@H](C)Nc2cc(-c3ccc(C)c(N)c3)nc(C)n2)c1 |
| > 1000 nM | – | Cc1nc(N[C@@H]2CCCc3ccccc32)cc(-c2ccc3nonc3c2)n1 |
| > 1000 nM | – | Cc1nc(N[C@@H]2CCCc3ccccc32)cc(-c2ccc3ncccc3c2)n1 |
| > 1000 nM | > 1000 nM | COc1cccc([C@H](C)Nc2cc(-c3cc4ccccc4o3)nc(C)n2)c1 |
| > 1000 nM | > 1000 nM | COCCNS(=O)(=O)c1cccc(C(C)Nc2cc(-c3ccc4ncsc4c3)nc(C)n2)c1 (stereo unspecified) |
| > 1000 nM | > 1000 nM | COc1cccc(-c2cc(NC(C)c3cccc(O)c3)nc(C)n2)c1F (stereo unspecified) |
| 500 nM | > 1000 nM | Cc1nc(NC(C)c2cccc(NC(=O)NC(N)=O)c2)cc(-c2ccc3ncsc3c2)n1 (stereo unspecified) |
| 500 nM | 500 nM | COc1cccc([C@H](C)Nc2cc(-c3cc4ccccc4n3C)nc(C)n2)c1 |
| > 1000 nM | – | Cc1nc(NC(C)c2cccc(OCCN(C)C)c2)cc(-c2ccc3occ(C)c3c2)n1 (stereo unspecified) |
| > 1000 nM | – | Cc1nc(NCC2CCCN(C(=O)CN(C)C(=O)c3ccccc3)C2)cc(-c2ccc3ncsc3c2)n1 (stereo unspecified) |
| 500 nM | > 1000 nM | Cc1nc(N[C@@H]2CCCc3ccccc32)cc(-c2cc3ccccc3s2)n1 |
| > 1000 nM | – | CCN(CC)C(=O)COc1cccc(C(C)Nc2cc(-c3ccc4c(c3)N(C)CCO4)nc(C)n2)c1 (stereo unspecified) |

| IC50 [1] | IC50 [2] | SMILES |
| --- | --- | --- |
| > 1000 nM | > 1000 nM | Cc1nc(NC(C)c2cccc(OCC3CCCN(C(=O)OC(C)(C)C)C3)c2)cc(-c2ccc3ncsc3c2)n1 (stereo unspecified) |
| 500 nM | – | Cc1nc(N[C@@H](C)c2cccc(/C=C/C(=O)NC(C)(C)C)c2)cc(-c2ccc3ncsc3c2)n1 |
| > 1000 nM | > 1000 nM | Cc1nc(N[C@@H]2CCCc3ccccc32)cc(-c2ccc(C#N)cc2)n1 |
| > 1000 nM | > 1000 nM | Cc1nc(NC(C)c2cccc(NS(=O)(=O)c3cn(C)cn3)c2)cc(-c2ccc3ncsc3c2)n1 (stereo unspecified) |
| 500 nM | > 1000 nM | Cc1nc(NC(C)c2ccc(F)c(-c3cnn(C)c3)c2)cc(-c2ccc3ncsc3c2)n1 (stereo unspecified) |
| > 1000 nM | > 1000 nM | Cc1nc(NC(C)c2cccc(OCC(=O)Nc3ccccc3)c2)cc(-c2ccc3ncsc3c2)n1 (stereo unspecified) |
| 500 nM | 500 nM | Cc1nc(NC(C)c2cccc(OCC#N)c2)cc(-c2ccc3ccn(C)c3c2)n1 (stereo unspecified) |
| > 1000 nM | – | Cc1nc(NC(C)c2cccc(-c3nn[nH]n3)c2)cc(-c2ccc3ncsc3c2)n1 (stereo unspecified) |
| 500 nM | 500 nM | Cc1nc(NC(C)c2cccc(OCc3cc(C)on3)c2)cc(-c2ccc3ncsc3c2)n1 (stereo unspecified) |
| > 1000 nM | – | Cc1nc(NC(C)c2cccc(-c3ccnc(N)n3)c2)cc(-c2ccc3ncsc3c2)n1 (stereo unspecified) |
| > 1000 nM | – | Cc1nc(N[C@@H]2CCCc3ccccc32)cc(-c2ccc3nccnc3c2)n1 |
| 500 nM | > 1000 nM | COc1cccc(-c2cc(N[C@@H]3CCCc4ccccc43)nc(C)n2)c1F |
| > 1000 nM | > 1000 nM | Cc1nc(NC(C)c2cccc(OCC3CCN(C(=O)OC(C)(C)C)CC3)c2)cc(-c2ccc3ncsc3c2)n1 (stereo unspecified) |
| 500 nM | – | COCCNC(=O)COc1cccc(C(C)Nc2cc(-c3ccc4ncsc4c3)nc(C)n2)c1 (stereo unspecified) |
| 500 nM | 500 nM | Cc1nc(N[C@@H]2CCCc3ccccc32)cc(-c2ccc3cnn(C)c3c2)n1 |
| 500 nM | – | Cc1nc(N[C@@H](C)c2cccc(-c3cnc(N4CCCCC4)nc3)c2)cc(-c2ccc3ncsc3c2)n1 |
| > 1000 nM | – | Cc1nc(NC(C)c2cccc(-c3cnn(C)c3)c2)cc(-c2ccc(F)c(Cl)c2)n1 (stereo unspecified) |
| > 1000 nM | – | COc1cccc(Oc2cc(N[C@@H]3CCCc4ccccc43)nc(C)n2)c1 |
| 500 nM | 500 nM | COc1ccc(-c2cc(NC(C)c3cccc(-c4cnn(C)c4)c3)nc(C)n2)cc1 (stereo unspecified) |
| 500 nM | – | Cc1nc(N[C@@H]2CCCc3ccccc32)cc(-c2ccc3c(c2)C(=O)C=CC3)n1 |
| 500 nM | – | Cc1nc(NC(C)c2cccc(-c3cnn(CC(=O)O)c3)c2)cc(-c2ccc3ncsc3c2)n1 (stereo unspecified) |
| > 1000 nM | > 1000 nM | Cc1nc(N[C@@H]2CCOc3ccccc32)cc(-c2ccc3ncsc3c2)n1 |

| IC50 [1] | IC50 [2] | SMILES |
| --- | --- | --- |
| 500 nM | > 1000 nM | Cc1nc(NC(C)c2cccc(OC(C)C(N)=O)c2)cc(-c2ccc3ncsc3c2)n1 (stereo unspecified) |
| > 1000 nM | – | Cc1nc(NC(C)c2cccc(NC(=O)CN(C)C(=O)OC(C)(C)C)c2)cc(-c2ccc3ncsc3c2)n1 (stereo unspecified) |
| > 1000 nM | – | Cc1nc(NCC2CCCN(C(=O)C3CCCCC3)C2)cc(-c2ccc3ncsc3c2)n1 (stereo unspecified) |
| > 1000 nM | > 1000 nM | Cc1nc(NC(C)c2cccc(NC=O)c2)cc(-c2ccc3ncsc3c2)n1 (stereo unspecified) |
| 500 nM | – | Cc1nc(NC(C)c2cccc(-c3cnn(C)c3)c2)cc(-c2cc(F)c(F)c(F)c2)n1 (stereo unspecified) |
| > 1000 nM | – | Cc1nc(NC(C)c2cccc(-c3cnn(C)c3)c2)cc(-c2ccc3ccccc3c2)n1 (stereo unspecified) |
| 500 nM | > 1000 nM | Cc1nc(NC(C)c2ccc(Cl)c(O)c2)cc(-c2ccc3occ(C)c3c2)n1 (stereo unspecified) |
| 500 nM | – | Cc1nc(NC(C)c2cccc(OCC(N)=O)c2)cc(-c2cc3ccccc3n2C)n1 (stereo unspecified) |
| > 1000 nM | – | Cc1nc(NCc2cc(OCC(=O)N3CCOCC3)ccc2F)cc(-c2ccc3ncsc3c2)n1 |
| > 1000 nM | > 1000 nM | Cc1nc(NC(C)c2cccc(NC(N)=O)c2)cc(-c2ccc3ncsc3c2)n1 (stereo unspecified) |
| > 1000 nM | – | Cc1nc(N[C@H](C)c2cccc(-c3cnn(C)c3)c2)cc(-c2cccc(F)c2)n1 |
| 500 nM | 500 nM | Cc1nc(NC(C)c2cccc(-c3cnn(C)c3)c2)cc(-c2ccc(Cl)cc2Cl)n1 (stereo unspecified) |
| > 1000 nM | – | COc1cccc([C@H](C)Nc2cc(-c3ccc4ncccc4c3)nc(C)n2)c1 |
| > 1000 nM | 500 nM | Cc1nc(NC(C)c2cccc(S(=O)(=O)NCCO)c2)cc(-c2ccc3ncsc3c2)n1 (stereo unspecified) |
| > 1000 nM | > 1000 nM | Cc1nc(NC(C)c2cccc(-c3cnn(C)c3)c2)cc(-c2ccccc2C)n1 (stereo unspecified) |
| > 1000 nM | – | Cc1nc(NCC2CCCN(C(=O)c3ccc[nH]3)C2)cc(-c2ccc3ncsc3c2)n1 (stereo unspecified) |
| 500 nM | – | CC(=O)N1CCN(CCOc2cccc(C(C)Nc3cc(-c4ccc5ncsc5c4)nc(C)n3)c2)CC1 (stereo unspecified) |
| 500 nM | 500 nM | Cc1nc(N[C@@H]2CCCc3ccccc32)cc(-c2ccc(C)c(O)c2)n1 |
| > 1000 nM | – | Cc1nc(N[C@H](C)c2ccnc(-c3cnn(C)c3)c2)cc(-c2ccc3occ(C)c3c2)n1 |
| > 1000 nM | > 1000 nM | CCN(CC)C(=O)COc1cccc(C(C)Nc2cc(-c3cccc(OC)c3F)nc(C)n2)c1 (stereo unspecified) |
| > 1000 nM | > 1000 nM | Cc1nc(N[C@@H]2CCCc3ccccc32)cc(-c2cc3ccccc3[nH]2)n1 |
| > 1000 nM | – | Cc1nc(NC(C)c2cccc(OCC[C@H](O)c3ccccc3)c2)cc(-c2ccc3ncsc3c2)n1 (stereo partly specified) |

| IC50 [1] | IC50 [2] | SMILES |
| --- | --- | --- |
| > 1000 nM | > 1000 nM | Cc1cc(COc2ccc(F)c(C(C)Nc3cc(-c4ccc5ncsc5c4)nc(C)n3)c2)n(C)n1 (stereo unspecified) |
| 500 nM | 500 nM | Cc1nc(NC(C)c2cccc(OCC3CCNCC3)c2)cc(-c2ccc3ncsc3c2)n1 (stereo unspecified) |
| 500 nM | – | Cc1nc(NCc2cc(OCC(=O)N(C)C)ccc2F)cc(-c2ccc3ncsc3c2)n1 |
| > 1000 nM | > 1000 nM | Cc1nc(N[C@H](C)c2cccc(O)c2)cc(-c2ccc3ncsc3c2)n1 |
| 500 nM | – | Cc1nc(NC(C)c2cccc(-c3cnn(C)c3)c2)cc(-c2ccc(F)c(F)c2)n1 (stereo unspecified) |
| 500 nM | – | CCN(CC)c1ncc(-c2cccc([C@H](C)Nc3cc(-c4ccc5ncsc5c4)nc(C)n3)c2)cn1 |
| 500 nM | > 1000 nM | Cc1nc(NC(C)c2cccc(NC(=O)c3ccn(C)n3)c2)cc(-c2ccc3ncsc3c2)n1 (stereo unspecified) |
| 500 nM | – | Cc1nc(NC(C)c2cccc(OCC(=O)NC3CC3)c2)cc(-c2ccc3ncsc3c2)n1 (stereo unspecified) |
| 500 nM | – | Cc1nc(NC(C)c2cccc(OCCCN3CCCC3)c2)cc(-c2ccc3ncsc3c2)n1 (stereo unspecified) |
| 500 nM | – | CCN(CC)C(=O)COc1cccc(C(C)Nc2cc(-c3ccc4ccccc4c3)nc(C)n2)c1 (stereo unspecified) |
| 500 nM | > 1000 nM | COc1cc(-c2cc(NC(C)c3cccc(O)c3)nc(C)n2)ccc1C (stereo unspecified) |
| > 1000 nM | – | Cc1nc(NC(C)c2cccc(/C(N)=N/O)c2)cc(-c2ccc3ncsc3c2)n1 (stereo unspecified) |
| > 1000 nM | 500 nM | Cc1nc(NC(C)c2cccc(OCC(=O)NCC(C)O)c2)cc(-c2ccc3ncsc3c2)n1 (stereo unspecified) |
| > 1000 nM | – | Cc1nc(NC(C)c2cccc(-c3cnn(C)c3)c2)cc(-c2cccc(N(C)C)c2)n1 (stereo unspecified) |
| 500 nM | – | COc1cc(C(C)Nc2cc(-c3ccc4ncsc4c3)nc(C)n2)ccn1 (stereo unspecified) |
| > 1000 nM | > 1000 nM | Cc1nc(NC(C)c2cccc(OCC(=O)C3CC3)c2)cc(-c2ccc3ncsc3c2)n1 (stereo unspecified) |
| > 1000 nM | – | Cc1nc(NC(C)c2cccc(OCC(=O)O)c2)cc(-c2ccc3ncsc3c2)n1 (stereo unspecified) |
| > 1000 nM | – | Cc1nc(N[C@H](C)c2cccc(-c3cnn(C)c3)c2)cc(-c2ccc3ncsc3c2)n1 |
| > 1000 nM | – | COc1ccc(-c2cc(NC(C)c3cccc(-c4cnn(C)c4)c3)nc(C)n2)c(F)c1 (stereo unspecified) |
